US12275745B2, “Therapeutic compounds and methods of use” (Genentech, Inc., priority 2021, dated 2025)

Tests used:
[1] = molecular target: TEAD4 (Homo sapiens, UniProt Q15561); assay: TR-FRET (Lipid HTRF) TEAD lipid pocket probe displacement assay, TEAD4; assay type: binding; conditions: His-tagged TEAD4, biotinylated lipid pocket probe, 4 hours
[2] = molecular target: TEAD1 (Homo sapiens, UniProt P28347); assay: TR-FRET (Lipid HTRF) TEAD lipid pocket probe displacement assay, TEAD1; assay type: binding; conditions: His-tagged TEAD1, biotinylated lipid pocket probe, 4 hours
Experimental: (§1) His-tagged TEAD proteins are pre-incubated with TEAD project compounds for 30 minutes or 4 hours at room temperature. Biotinylated lipid pocket probes are then added to the TEAD/Compound mixture and incubated for 60 minutes at room temperature. The lipid pocket probe competes with the test compound for the TEAD lipid pocket until equilibrium is reached. After 60 minutes, Europium labelled anti-His (Perkin Elmer #AD0110) and XL665 labelled streptavidin (CIS Bio 610SAXAC) are added to the TEAD/test compound/lipid pocket mixture and incubated for 30 minutes or 4 hours. TR-FRET values are then measured using an EnVision multi-label plate reader (Perkin Elmer Cat #2104-001 0A.) If the lipid pocket probe binds to TEAD as expected, a TR-FRET signal results from the proximity of anti-His Eu and XL665. If a TEAD lipid pocket binder such as binds and displaces the lipid pocket probe, the disruption of the TEAD:probe interaction results in a decrease in TR-FRET signal. The potency of compounds as TEAD lipid pocket binders is determined by IC50 value generated using a non-linear 4 parameter curve fit.

[3] = molecular target: TEAD3 (Homo sapiens, UniProt Q99594); assay: TR-FRET (Lipid HTRF) TEAD lipid pocket probe displacement assay, TEAD3; assay type: binding; conditions: His-tagged TEAD3, biotinylated lipid pocket probe, 4 hours
Experimental: as §1

[4] = molecular target: TEAD2 (Homo sapiens, UniProt Q15562); assay: biochemical;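 also: TR-FRET competition assay with His-tagged TEAD protein and a biotinylated lipid pocket probe, where probe displacement by compound lowers the signal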
Chain of TEAD2 (Q15562 whole entry, species assumed): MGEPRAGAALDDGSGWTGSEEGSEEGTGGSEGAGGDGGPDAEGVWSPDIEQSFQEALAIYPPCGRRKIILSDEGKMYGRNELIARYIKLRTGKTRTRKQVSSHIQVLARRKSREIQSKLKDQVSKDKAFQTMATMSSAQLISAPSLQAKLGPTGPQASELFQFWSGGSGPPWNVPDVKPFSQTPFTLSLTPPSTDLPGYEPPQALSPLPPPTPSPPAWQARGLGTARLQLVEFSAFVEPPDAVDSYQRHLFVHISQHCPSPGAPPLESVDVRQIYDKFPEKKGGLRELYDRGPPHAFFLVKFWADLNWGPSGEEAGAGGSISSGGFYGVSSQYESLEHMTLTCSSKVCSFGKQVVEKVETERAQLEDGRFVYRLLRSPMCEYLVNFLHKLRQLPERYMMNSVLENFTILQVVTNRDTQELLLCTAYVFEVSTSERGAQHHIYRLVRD
Experimental: as §1

Chain of TEAD1 (P28347 whole entry, species assumed): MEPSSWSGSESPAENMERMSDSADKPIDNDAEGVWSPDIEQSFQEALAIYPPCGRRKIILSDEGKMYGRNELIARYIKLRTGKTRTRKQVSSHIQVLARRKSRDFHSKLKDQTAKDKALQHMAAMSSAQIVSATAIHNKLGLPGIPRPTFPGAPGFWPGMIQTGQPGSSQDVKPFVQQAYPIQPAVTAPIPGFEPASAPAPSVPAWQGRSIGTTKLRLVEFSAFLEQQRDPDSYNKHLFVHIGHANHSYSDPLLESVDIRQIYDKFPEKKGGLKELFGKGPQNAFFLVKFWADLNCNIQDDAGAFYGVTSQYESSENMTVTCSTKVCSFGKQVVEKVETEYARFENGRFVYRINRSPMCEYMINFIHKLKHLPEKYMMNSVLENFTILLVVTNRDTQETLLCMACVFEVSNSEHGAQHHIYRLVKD
Chain of TEAD3 (Q99594 whole entry, species assumed): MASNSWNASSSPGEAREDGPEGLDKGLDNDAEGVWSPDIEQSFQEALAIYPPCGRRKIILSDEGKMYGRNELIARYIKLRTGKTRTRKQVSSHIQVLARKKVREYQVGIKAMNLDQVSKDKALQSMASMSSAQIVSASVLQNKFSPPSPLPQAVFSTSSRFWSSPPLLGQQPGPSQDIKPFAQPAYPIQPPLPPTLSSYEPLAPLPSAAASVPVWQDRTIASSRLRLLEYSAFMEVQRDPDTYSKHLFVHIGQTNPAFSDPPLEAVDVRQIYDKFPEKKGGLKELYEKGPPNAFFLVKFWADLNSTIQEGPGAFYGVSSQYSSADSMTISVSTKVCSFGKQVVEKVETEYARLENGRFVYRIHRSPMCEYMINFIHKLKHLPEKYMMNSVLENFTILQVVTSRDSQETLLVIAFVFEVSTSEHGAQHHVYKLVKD
Chain of TEAD4 (Q15561 whole entry, species assumed): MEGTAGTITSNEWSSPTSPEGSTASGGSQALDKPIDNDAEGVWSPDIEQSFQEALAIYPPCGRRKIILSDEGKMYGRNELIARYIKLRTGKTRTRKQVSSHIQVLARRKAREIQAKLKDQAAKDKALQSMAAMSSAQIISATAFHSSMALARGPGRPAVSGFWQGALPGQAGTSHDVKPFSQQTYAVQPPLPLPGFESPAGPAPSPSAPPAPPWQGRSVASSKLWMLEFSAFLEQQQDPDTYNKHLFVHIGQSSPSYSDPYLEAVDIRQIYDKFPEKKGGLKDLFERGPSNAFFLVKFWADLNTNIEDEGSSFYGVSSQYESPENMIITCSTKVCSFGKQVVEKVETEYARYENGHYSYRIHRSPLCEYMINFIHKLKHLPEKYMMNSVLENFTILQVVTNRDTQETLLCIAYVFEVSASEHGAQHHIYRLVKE

Structure (SMILES)	IC50 [1] [nM]	IC50 [2] [nM]	IC50 [3] [nM]	IC50 [4] [nM]
C=CC(=O)NCc1cc(-c2ccc(OC(F)(F)F)cc2)c2ncn(C)c2c1[C@H](O)CO (single isomer, unassigned) [Compound 30]	53			
C=CC(=O)NCc1cc(-c2ccc(OC(F)(F)F)cc2)c2cccnc2c1[C@H](O)CO (single isomer, unassigned) [Compound 45]	380	48	1200	18
C=CC(=O)NCc1cc(-c2ccc(OC(F)(F)F)cc2)c2ncccc2c1[C@@H](O)CO (single isomer, unassigned) [Compound 48]	145	22	1040	14.5
C=CC(=O)N(C)Cc1cc(-c2ccc(OC(F)(F)F)cc2)c2ncccc2c1[C@H](O)CO (single isomer, unassigned) [Compound 51]	20	19	110	12
C=CC(=O)N(C)Cc1cc(-c2ccc(OC(F)(F)F)cc2)c2ncccc2c1[C@@H](O)CO (single isomer, unassigned) [Compound 52]	43	25	79	46
C=CC(=O)NCc1nc(-c2ccc(OC(F)(F)F)cc2)c2ncn(C)c2c1[C@H](O)CO (single isomer, unassigned) [Compound 70]	260			
C=CC(=O)NCc1cc(-c2ccc(OC(F)(F)F)cc2)c2ncoc2c1[C@H]1CNC(=O)O1 (single isomer, unassigned) [Compound 111]	290	160		70
C=CC(=O)NCc1cc(-c2ccc(OC(F)(F)F)cc2)c2ncoc2c1[C@@H]1CNC(=O)O1 (single isomer, unassigned) [Compound 112]	520	2400		360
C=CC(=O)NCc1cc(-c2ccc(OC(F)(F)F)cc2)c2c(c1CO)CCO2 [Compound 12, N-((4-(Hydroxymethyl)-7-(4-(trifluoromethoxy)phenyl)-2,3-dihydrobenzofuran-5-yl)methyl)acrylamide]	15.2			18.3
O=C(CCl)NCc1nc(-c2ccc(OC(F)(F)F)cc2)c2ncsc2n1 [Compound 15, 2-chloro-N-[[7-[4-(trifluoromethoxy)phenyl]thiazolo[5,4-d]pyrimidin-5-yl]methyl]acetamide]	5		70	300
C=CC(=O)NCc1nc(-c2ccc(OC(F)(F)F)cc2)c2ncsc2n1 [Compound 21, N-[[7-[4-(trifluoromethoxy)phenyl]thiazolo[5,4-d]pyrimidin-5-yl]methyl]prop-2-enamide]	11.9		72.7	190
O=C(CCl)NCc1cc(-c2ccc(OC(F)(F)F)cc2)c2c(c1CO)CCO2 [Compound 25, 2-Chloro-N-((4-(hydroxymethyl)-7-(4-(trifluoromethoxy)phenyl)-2,3-dihydrobenzofuran-5-yl)methyl)acetamide]	3.7	4.4		3.9
C=CC(=O)NCc1cc(-c2ccc(OC(F)(F)F)cc2)c2ncn(C)c2c1C#N [Compound 27, N-[[4-cyano-3-methyl-7-[4-(trifluoromethoxy)phenyl]benzimidazol-5-yl]methyl]prop-2-enamide]	6.7		40.5	15
C=CC(=O)NCc1cc(-c2ccc(OC(F)(F)F)cc2)c2ncn(C)c2c1C#C[C@H](O)CO [Compound 74, (S)—N-((7-(3,4-dihydroxybut-1-yn-1-yl)-1-methyl-4-(4-(trifluoromethoxy)phenyl)-1H-benzo[d]imidazol-6-yl)methyl)acrylamide]		16	340	17
C=CC(=O)NCc1cc(-c2ccc(OC(F)(F)F)cc2)c2ncn(C)c2c1C#C[C@@H](O)CO [Compound 75, (R)-N-((7-(3,4-dihydroxybut-1-yn-1-yl)-1-methyl-4-(4-(trifluoromethoxy)phenyl)-1H-benzo[d]imidazol-6-yl)methyl)acrylamide]		9	160	13
[2H]C([2H])=C([2H])C(=O)NCc1nc(-c2ccc(OC(F)(F)F)cc2)c2ncsc2n1 [Compound 101, N-((7-(4-(Trifluoromethoxy)phenyl)thiazolo[5,4-d]pyrimidin-5-yl)methyl)acrylamide-2,3,3-d3]	15.1		216	275
Cn1cnc2c(-c3ccc(OC(F)(F)F)cc3)nc(C3CN(C(=O)C4=CCC4)C3)nc21 [Compound 115, Cyclobut-1-en-1-yl(3-(9-methyl-6-(4-(trifluoromethoxy)phenyl)-9H-purin-2-yl)azetidin-1-yl)methanone]	2.25		9	4.85
C/C=C/S(=O)(=O)N1CC(c2nc(-c3ccc(OC(F)(F)F)cc3)c3ncn(C)c3n2)C1 [Compound 116, (E)-9-Methyl-2-(1-(prop-1-en-1-ylsulfonyl)azetidin-3-yl)-6-(4-(trifluoromethoxy)phenyl)-9H-purine]		5.3		8.7

Next, values leading:

IC50 [1] [nM]	IC50 [2] [nM]	IC50 [3] [nM]	IC50 [4] [nM]	Structure (SMILES)
5700				C=CC(=O)N[C@H](C)c1cc(-c2ccc(OC(F)(F)F)cc2)c2c(c1CO)CCO2 (single isomer, unassigned) [Compound 17]
800				C=CC(=O)N[C@@H](C)c1cc(-c2ccc(OC(F)(F)F)cc2)c2c(c1CO)CCO2 (single isomer, unassigned) [Compound 18]
55				C=CC(=O)NCc1cc(-c2ccc(OC(F)(F)F)cc2)c2ncn(C)c2c1[C@@H](O)CO (single isomer, unassigned) [Compound 31]
79	140	260	7.8	C=CC(=O)NCc1cc(-c2ccc(OC(F)(F)F)cc2)c2ncn(C)c2c1[C@H](C)O (single isomer, unassigned) [Compound 33]
125	22	79	6.15	C=CC(=O)NCc1cc(-c2ccc(OC(F)(F)F)cc2)c2cccnc2c1[C@@H](O)CO (single isomer, unassigned) [Compound 46]
135	22	175	11.5	C=CC(=O)NCc1cc(-c2ccc(OC(F)(F)F)cc2)c2ncccc2c1[C@H](O)CO (single isomer, unassigned) [Compound 47]
120				C=CC(=O)NCc1nc(-c2ccc(OC(F)(F)F)cc2)c2ncn(C)c2c1[C@@H](O)CO (single isomer, unassigned) [Compound 71]
		1900	40	C=CC(=O)NCc1cc(-c2ccc(OC(F)(F)F)cc2)c2nccnc2c1[C@H](O)CO (single isomer, unassigned) [Compound 79]
	93	580	66	C=CC(=O)N1CC[C@@H](c2nc(-c3ccc(OC(F)(F)F)cc3)c3ncn(C)c3n2)C1 (single isomer, unassigned) [Compound 122]
	17	80	7.8	C=CC(=O)N1CC[C@H](c2nc(-c3ccc(OC(F)(F)F)cc3)c3ncn(C)c3n2)C1 (single isomer, unassigned) [Compound 123]
	4	8		C=CS(=O)(=O)NCc1cc(-c2ccc(OC(F)(F)F)cc2)c2c(c1CO)CCO2 [Compound 19, N-((4-(Hydroxymethyl)-7-(4-(trifluoromethoxy)phenyl)-2,3-dihydrobenzofuran-5-yl)methyl)ethenesulfonamide]
17.5			23.5	[2H]C([2H])=C([2H])C(=O)NCc1cc(-c2ccc(OC(F)(F)F)cc2)c2c(c1CO)CCO2 [Compound 20, 2,3,3-Trideuterio-N-((4-(hydroxymethyl)-7-(4-(trifluoromethoxy)phenyl)-2,3-dihydrobenzofuran-5-yl)methyl]prop-2-enamide]
		390	15.3	C=CC(=O)NCc1cc(-c2ccc(OC(F)(F)F)cc2)c2nccnc2c1[C@@H](O)CO [Compound 28, N-[[5-[(1R)-1,2-dihydroxyethyl]-8-[4-(trifluoromethoxy)phenyl]quinoxalin-6-yl]methyl]prop-2-enamide]
2			3.1	C=CC(=O)N1CC(c2nc(-c3ccc(OC(F)(F)F)cc3)c3ncn(C)c3n2)C1 [Compound 62, 1-[3-[9-methyl-6-[4-(trifluoromethoxy)phenyl]purin-2-yl]azetidin-1-yl]prop-2-en-1-one]
260		1300	230	C=CC(=O)NCc1cc(-c2ccc(OC(F)(F)F)cc2)c2ncn(C)c2c1C(N)=O [Compound 76, 3-methyl-5-[(prop-2-enoylamino)methyl]-7-[4-(trifluoromethoxy)phenyl]benzimidazole-4-carboxamide]
6.7	9.5		72	C=C(F)C(=O)N1CC(c2nc(-c3ccc(OC(F)(F)F)cc3)c3ncn(C)c3n2)C1 [Compound 118, 2-Fluoro-1-(3-(9-methyl-6-(4-(trifluoromethoxy)phenyl)-9H-purin-2-yl)azetidin-1-yl)prop-2-en-1-one]
160			1300	Cn1cnc2c(-c3ccc(OC(F)(F)F)cc3)nc(C3CN(C(=O)C45CC4C5)C3)nc21 (stereo not shown) [Compound 119, Bicyclo[1.1.0]butan-1-yl(3-(9-methyl-6-(4-(trifluoromethoxy)phenyl)-9H-purin-2-yl)azetidin-1-yl)methanone]
220			840	C/C=C(\C)C(=O)N1CC(c2nc(-c3ccc(OC(F)(F)F)cc3)c3ncn(C)c3n2)C1 [Compound 120, (E)-2-Methyl-1-(3-(9-methyl-6-(4-(trifluoromethoxy)phenyl)-9H-purin-2-yl)azetidin-1-yl)but-2-en-1-one]
